This note sets out measurements from patent publication US5629322A, “Cyclic amidine analogs as inhibitors of nitric oxide synthase” (priority 1995, dated 1997).

Each structure is given as a SMILES string. Counter-ions that a name gives are not always drawn. Like-named read-outs stand apart in the source and are kept apart here. Some results are limits rather than exact numbers.

One test has as its target ecNOS (Homo sapiens, UniProt P29474). Description: NOS activity assay, ecNOS (L-[3H]citrulline formation). It counts as biochemical. On the procedure:
(§1) Assay Protocol for NOS activity
(§2) NOS activity is measured as the formation of L-[2,3,4,5-^3 H]Citrullinefrom L-[2,3,4,5-^3 H]Arginine. The incubation buffer (100 μL) contained; 100 mM TES, pH 7.5, 5 μM FAD, 5 μM FMN, 10 μM BH4, 0.5 mM NADPH, 0.5 mM DTT, 0.5 mg/mL BSA, 2 mM CaCl2, 10 μg/mL calmodulin (bovine), 1 μM L-Arg, 0.2 μCi L-[2,3,4,5-^3 H]Arg, and the inhibitor in aqueous DMSO (max. 5%). The reaction is initiated by addition of enzyme. Incubations are performed at room temperature for 30 minutes and stopped by the addition of an equal volume of quenching buffer consisting of 200 mM sodium citrate, pH 2.2, 0.02% sodium azide. Reaction products are separated by passing through a cation exchange resin and quantitated as cpm by scintillation counting.

The target in another test is iNOS (Homo sapiens, UniProt P35228). As to the kind of experiment: NOS activity assay, iNOS (L-[3H]citrulline formation). Type of test: biochemical. The method, then:
as §1, §2

A further test concerns the target ncNOS (Homo sapiens, UniProt P29475). As to the kind of experiment: biochemical.

Sequence of ncNOS (P29475 whole entry): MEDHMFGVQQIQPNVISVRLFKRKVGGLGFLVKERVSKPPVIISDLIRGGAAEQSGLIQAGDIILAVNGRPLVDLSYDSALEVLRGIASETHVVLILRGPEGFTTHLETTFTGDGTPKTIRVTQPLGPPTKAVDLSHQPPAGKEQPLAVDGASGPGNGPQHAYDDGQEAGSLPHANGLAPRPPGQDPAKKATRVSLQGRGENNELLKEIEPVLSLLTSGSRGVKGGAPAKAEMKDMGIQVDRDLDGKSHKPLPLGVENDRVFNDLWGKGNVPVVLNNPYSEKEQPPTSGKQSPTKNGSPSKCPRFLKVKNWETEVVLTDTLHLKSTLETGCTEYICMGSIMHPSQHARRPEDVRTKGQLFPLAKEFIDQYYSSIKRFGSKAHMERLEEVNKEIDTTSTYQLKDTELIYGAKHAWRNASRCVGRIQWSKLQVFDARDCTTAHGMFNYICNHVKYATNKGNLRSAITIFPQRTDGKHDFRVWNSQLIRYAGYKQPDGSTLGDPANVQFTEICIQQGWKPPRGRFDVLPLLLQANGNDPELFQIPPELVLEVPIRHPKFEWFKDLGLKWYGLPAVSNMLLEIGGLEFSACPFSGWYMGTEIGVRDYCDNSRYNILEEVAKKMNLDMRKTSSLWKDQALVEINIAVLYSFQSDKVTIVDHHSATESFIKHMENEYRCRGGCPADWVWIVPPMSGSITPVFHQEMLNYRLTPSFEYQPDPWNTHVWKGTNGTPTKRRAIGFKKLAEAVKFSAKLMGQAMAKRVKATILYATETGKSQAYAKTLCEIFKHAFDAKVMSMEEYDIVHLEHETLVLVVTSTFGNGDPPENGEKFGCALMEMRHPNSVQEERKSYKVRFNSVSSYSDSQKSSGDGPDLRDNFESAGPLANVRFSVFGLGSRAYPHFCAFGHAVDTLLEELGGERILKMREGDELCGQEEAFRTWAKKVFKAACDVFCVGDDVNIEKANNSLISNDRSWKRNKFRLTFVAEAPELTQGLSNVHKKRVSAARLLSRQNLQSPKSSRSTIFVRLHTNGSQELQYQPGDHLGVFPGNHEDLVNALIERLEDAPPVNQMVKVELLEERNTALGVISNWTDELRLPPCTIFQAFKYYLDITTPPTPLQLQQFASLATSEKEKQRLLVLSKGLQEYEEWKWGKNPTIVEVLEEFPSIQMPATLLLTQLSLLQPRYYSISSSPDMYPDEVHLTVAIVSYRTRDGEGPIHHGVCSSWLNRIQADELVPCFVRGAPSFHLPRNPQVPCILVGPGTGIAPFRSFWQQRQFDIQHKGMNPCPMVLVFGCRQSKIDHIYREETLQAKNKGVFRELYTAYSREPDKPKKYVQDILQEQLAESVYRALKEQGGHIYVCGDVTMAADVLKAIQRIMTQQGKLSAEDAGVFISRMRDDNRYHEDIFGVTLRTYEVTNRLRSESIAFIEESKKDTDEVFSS

For `N=C(N)CCNC(=O)C1CCC(=N)N1` (centres unmarked), the IC50 (commonly the midpoint of a concentration-inhibition curve) at ecNOS (Table 4, read-out: IC50 ecNOS) is over 50 µM; at iNOS (Table 4, read-out: IC50 iNOS) it was at most 10 µM; on ncNOS (Table 4, read-out: IC50 ncNOS), under 10 µM.
Turning to `CC(=O)NCC1CNC(=N)CC1C` (mixture of isomers) [Table 5: CH, H, CH3, CH2NHAc, H, H, H, cis/trans-5-Acetamidomethyl-2-imino-4-methyl-piperidine, acetic acid salt], the IC50 at ecNOS (Table 5, read-out: IC50 ecNOS) was over 50 µM; at iNOS (Table 5, read-out: IC50 iNOS), at most 50 µM; on ncNOS (Table 5, read-out: IC50 ncNOS) it was at most 50 µM.
Consider `COC(=O)C1CNC(=N)CC1C` (mixture of isomers) [Table 5: CH, H, CH3, CO2CH3, H, H, H, cis/trans-2-Imino-4-methyl-piperidine-5-carboxylic acid, methyl ester, acetic acid salt], for which the IC50 was over 50 µM at ecNOS (Table 5, read-out: IC50 ecNOS); at most 10 µM on iNOS (Table 5, read-out: IC50 iNOS); at most 50 µM on ncNOS (Table 5, read-out: IC50 ncNOS).
The matching figures for `CC1CC(=N)NCC1C(=O)O` (mixture of isomers) [Table 5: CH, H, CH3, CO2H, H, H, H, cis/trans-2-Imino-4-methyl-piperidine-5-carboxylic acid, acetic acid salt]: at most 50 µM, at most 10 µM and at most 10 µM.
Turning to `CC(=O)NC1CNC(=N)CC1C` (mixture of isomers) [Table 5: CH, H, CH3, NHAc, H, H, H, cis/trans-5-Acetamido-2-imino-4-methyl-piperidine, acetic acid salt], the IC50 on ecNOS (Table 5, read-out: IC50 ecNOS) was over 50 µM; at iNOS (Table 5, read-out: IC50 iNOS), at most 50 µM; at ncNOS (Table 5, read-out: IC50 ncNOS), over 50 µM.
Consider `CC1CC(=N)NCC1C1CCCCC1` (mixture of isomers) [cis/trans-5-Cyclohexyl-2-imino-4-methyl-piperidine, acetic acid salt], for which the IC50 was over 50 µM on ecNOS (Table 5, read-out: IC50 ecNOS); over 50 µM on iNOS (Table 5, read-out: IC50 iNOS); over 50 µM on ncNOS (Table 5, read-out: IC50 ncNOS).
Take `NC1=N[C@H]2CCCC[C@H]2CC1` (relative stereo) [Table 5: CH2, H, H, cis-(CH2)4, H, H, cis-Decahydro-2-iminoquinoline hydrochloride]: the IC50 on ecNOS (Table 5, read-out: IC50 ecNOS) is at most 50 µM; on iNOS (Table 5, read-out: IC50 iNOS), at most 1 µM; at ncNOS (Table 5, read-out: IC50 ncNOS) it was at most 1 µM.
As for `N=C1CC[C@@H]2CCCC[C@H]2N1` (relative stereo) [Table 5: CH2, H, H, trans-(CH2)4, H, H, trans-Decahydro-2-iminoquinoline hydrochloride], the IC50 is at most 10 µM at ecNOS (Table 5, read-out: IC50 ecNOS); at most 1 µM on iNOS (Table 5, read-out: IC50 iNOS); at most 1 µM on ncNOS (Table 5, read-out: IC50 ncNOS).
As for `CC[C@@H]1C(=N)NCC[C@@H]1C` (relative stereo) [Table 5: CH, C2H5, CH3, H, H, H, H, cis-3-Ethyl-2-imino-4-methyl-piperidine, hydrochloride], the IC50 at ecNOS (Table 5, read-out: IC50 ecNOS) is at most 50 µM; on iNOS (Table 5, read-out: IC50 iNOS), at most 50 µM; on ncNOS (Table 5, read-out: IC50 ncNOS), at most 10 µM.
As to `C[C@@H]1CC(=N)N[C@H](C)C1` (relative stereo) [Table 5: CH, H, CH3, H, CH3, H, H, cis-4,6-Dimethyl-2-imino-piperidine, acetic acid salt], the IC50 on ecNOS, against iNOS and at ncNOS was at most 1 µM each time.
Regarding `CCC[C@@H]1C(=N)NCC[C@@H]1C` (relative stereo) [Table 5: CH, n-C3H7, CH3, H, H, H, H, cis-2-Imino-4-methyl-3-n-propyl-piperidine, hydrochloride], the IC50 at ecNOS (Table 5, read-out: IC50 ecNOS) is over 50 µM; on iNOS (Table 5, read-out: IC50 iNOS) it was at most 50 µM; on ncNOS (Table 5, read-out: IC50 ncNOS) it was at most 50 µM.
Turning to `N=C1CN[C@@H]2CCCC[C@@H]2N1` (relative stereo) [Table 5: N, H, H, cis-(CH2)4, H, H, 2-Imino-decahydro-cis-quinoxaline], the IC50 on ecNOS is over 50 µM; on iNOS, at most 10 µM; on ncNOS (Table 5, read-out: IC50 ncNOS) it was over 50 µM.
Regarding `CC1CC(N)=NC1C` (single isomer, unassigned) [Table 4: H, CH3, CH3(A), H, H], the IC50 at ecNOS (Table 4, read-out: IC50 ecNOS) is at most 1 µM; on iNOS (Table 4, read-out: IC50 iNOS) it was at most 1 µM; on ncNOS (Table 4, read-out: IC50 ncNOS) it was at most 1 µM.
On to `CC1CC(N)=NC1C` (single isomer, unassigned) [Table 4: H, CH3, CH3(B), H, H], for which the IC50 on iNOS (Table 4, read-out: IC50 iNOS) is at most 1 µM; at ncNOS (Table 4, read-out: IC50 ncNOS) it was at most 1 µM.
`CCC1CN=C(N)C1C` (centres unmarked) [Table 4: CH3, C2H5, H, H, H, 2-Imino-4-ethyl-3-methylpyrrolidine hydrochloride]: the IC50 at ecNOS (Table 4, read-out: IC50 ecNOS) is over 50 µM; on iNOS (Table 4, read-out: IC50 iNOS), at most 1 µM; on ncNOS (Table 4, read-out: IC50 ncNOS) it was at most 10 µM.
`CC1CN=C(N)C1C` (centres unmarked) [Table 4: CH3, CH3, H, H, H, 2-Imino-3,4-dimethylpyrrolidine hydrochloride]: the 50% inhibitory concentration (IC50) on ecNOS (Table 4, read-out: IC50 ecNOS) was at most 10 µM; at iNOS (Table 4, read-out: IC50 iNOS), at most 10 µM; at ncNOS (Table 4, read-out: IC50 ncNOS), at most 1 µM.
For the compound `CC1CCN=C1N` (centres unmarked) [Table 4: CH3, H, H, H, H, 2-Imino-3-methylpyrrolidine hydrochloride], the IC50 at ecNOS (Table 4, read-out: IC50 ecNOS) was at most 10 µM; at iNOS (Table 4, read-out: IC50 iNOS), at most 10 µM; at ncNOS, at most 1 µM.
Consider `CCC1CC(N)=NC1C` (centres unmarked) [Table 4: H, C2H5, CH3, H, H, 2-Imino-4-ethyl-5-methylpyrrolidine hydrochloride], for which the IC50 at ecNOS (Table 4, read-out: IC50 ecNOS) was at most 10 µM; at iNOS (Table 4, read-out: IC50 iNOS), at most 1 µM; at ncNOS (Table 4, read-out: IC50 ncNOS), at most 1 µM.
As to `CCC1CN=C(N)C1` (centres unmarked) [Table 4: H, C2H5, H, H, H, 2-Imino-4-ethylpyrrolidine hydrochloride], the IC50 on ecNOS (Table 4, read-out: IC50 ecNOS) is at most 50 µM; on iNOS (Table 4, read-out: IC50 iNOS), at most 1 µM; on ncNOS (Table 4, read-out: IC50 ncNOS) it was at most 10 µM.
On to `CCC1N=C(N)CC1C` (centres unmarked) [Table 4: H, CH3, C2H5, H, H, 2-Imino-5-ethyl-4-methylpyrrolidine hydrochloride], for which the IC50 on ecNOS (Table 4, read-out: IC50 ecNOS) is at most 1 µM; at iNOS (Table 4, read-out: IC50 iNOS), at most 1 µM; on ncNOS, at most 1 µM.
Turning to `CC1CC(N)=NC1C` (centres unmarked) [Table 4: H, CH3, CH3, H, H, 2-Imino-4,5-dimethylpyrrolidine hydrochloride], the IC50 is under 1 µM at ecNOS (Table 4, read-out: IC50 ecNOS); at most 1 µM on iNOS (Table 4, read-out: IC50 iNOS); under 1 µM at ncNOS (Table 4, read-out: IC50 ncNOS).
As for `CC1CN=C(N)C1` (centres unmarked) [Table 4: H, CH3, H, H, H, 2-Imino-4-methylpyrrolidine hydrochloride], the IC50 was at most 10 µM against ecNOS, at most 10 µM on iNOS and at most 1 µM at ncNOS.
As to `CCCC1N=C(N)CC1C` (centres unmarked) [Table 4: H, CH3, n-C3H7, H, H, 2-Imino-4-methyl-5-propylpyrrolidine hydrochloride], the IC50 at ecNOS (Table 4, read-out: IC50 ecNOS) was at most 50 µM; at iNOS (Table 4, read-out: IC50 iNOS), at most 10 µM; at ncNOS (Table 4, read-out: IC50 ncNOS) it was at most 10 µM.
Take `N=C1CC[C@@H]2CCCN12` [Table 4: H, H, (CH2)3, H, 5-(S)-2-Imino-1-aza-bicyclo(3.3.0)octane]: the IC50 was at most 50 µM at ecNOS (Table 4, read-out: IC50 ecNOS); over 50 µM at iNOS (Table 4, read-out: IC50 iNOS); at most 10 µM on ncNOS (Table 4, read-out: IC50 ncNOS).
On to `CC1(C)CCC(=N)N1` [Table 4: H, H, (CH3)2, H, H, 2-Imino-5,5-dimethylpyrrolidine hydrochloride], for which the IC50 at ecNOS (Table 4, read-out: IC50 ecNOS) was at most 50 µM; on iNOS (Table 4, read-out: IC50 iNOS), at most 10 µM; at ncNOS (Table 4, read-out: IC50 ncNOS), at most 10 µM.
Regarding `CC(=O)OC[C@H]1CCC(=N)N1` [Table 4: H, H, (R)-CH2OAc, H, H, 2-Imino-5-(R)-acetyloxymethylpyrrolidine hydrochloride], the IC50 at ecNOS (Table 4, read-out: IC50 ecNOS) is over 50 µM; on iNOS (Table 4, read-out: IC50 iNOS), over 50 µM; at ncNOS (Table 4, read-out: IC50 ncNOS), over 50 µM.
Consider `N=C1CC[C@H](CO)N1` [Table 4: H, H, (R)-CH2OH, H, H, 2-Imino-5-(R)-hydroxymethylpyrrolidine hydrochloride], for which the IC50 on ecNOS (Table 4, read-out: IC50 ecNOS) is at most 50 µM; on iNOS (Table 4, read-out: IC50 iNOS), at most 50 µM; on ncNOS (Table 4, read-out: IC50 ncNOS), at most 50 µM.
`CC(=O)OC[C@@H]1CCC(=N)N1` [Table 4: H, H, (S)-CH2OAc, H, H, 2-Imino-5-(S)-acetyloxymethylpyrrolidine hydrochloride]: the IC50 at ecNOS (Table 4, read-out: IC50 ecNOS) is over 50 µM; at iNOS (Table 4, read-out: IC50 iNOS), at most 50 µM; at ncNOS (Table 4, read-out: IC50 ncNOS), at most 10 µM.
`O=C(O)C1CCC(=NC2NCCS2)N1` (centres unmarked) [Table 4: H, H, CO2H, H, 2-thiazolidinyl]: on iNOS (Table 4, read-out: IC50 iNOS), the IC50 was at most 50 µM.
For `C[C@@H]1CCC(=N)NC1` [Table 5: CH2, H, H, (R)CH3, H, H, H, 5(R)-Methyl-2-iminopiperidine hydrochloride], the figures for the IC50 against ecNOS and against iNOS were at most 10 µM and at most 1 µM, respectively.
For `C[C@H]1CCC(=N)NC1` [Table 5: CH2, H, H, (S)CH3, H, H, H, 5(S)-Methyl-2-iminopiperidine hydrochloride], the IC50 at ecNOS and on iNOS was at most 10 µM in each case.
Regarding `CC1CCC(N)=NC1` (centres unmarked) [Table 5: CH2, H, H, CH3, H, H, H, 2-Imino-5-methylpiperidine hydrochloride], the IC50 at ecNOS was at most 10 µM; on iNOS, at most 1 µM.
`N=C1CCCCN1` [Table 5: CH2, H, H, H, H, H, H, 2-Iminopiperidine hydrochloride]: the IC50 on ecNOS and against iNOS was at most 1 µM in each case.
Turning to `C[C@@H]1CCNC(=N)C1` [Table 5: CH, H, (R)CH3, H, H, H, H, 4(R)-Methyl-2-iminopiperidine hydrochloride], the IC50 on iNOS was at most 1 µM.
On the same count and under the same terms, the figure for `C[C@H]1CCNC(=N)C1` [Table 5: CH, H, (S)CH3, H, H, H, H, 4(S)-Methyl-2-iminopiperidine hydrochloride] is at most 1 µM; for `CC1CCN=C(N)C1` (centres unmarked) [Table 5: CH, H, CH3, H, H, H, H, 2-Imino-4-methylpiperidine hydrochloride] it is at most 1 µM.
